Data on 3 compounds can be found in publication PMC3634896 (Bioorganic & medicinal chemistry letters, 2013).

Data set [1] concerns the target T1, human M5 (Homo sapiens, UniProt P08912).
T1 sequence (P08912 1-532): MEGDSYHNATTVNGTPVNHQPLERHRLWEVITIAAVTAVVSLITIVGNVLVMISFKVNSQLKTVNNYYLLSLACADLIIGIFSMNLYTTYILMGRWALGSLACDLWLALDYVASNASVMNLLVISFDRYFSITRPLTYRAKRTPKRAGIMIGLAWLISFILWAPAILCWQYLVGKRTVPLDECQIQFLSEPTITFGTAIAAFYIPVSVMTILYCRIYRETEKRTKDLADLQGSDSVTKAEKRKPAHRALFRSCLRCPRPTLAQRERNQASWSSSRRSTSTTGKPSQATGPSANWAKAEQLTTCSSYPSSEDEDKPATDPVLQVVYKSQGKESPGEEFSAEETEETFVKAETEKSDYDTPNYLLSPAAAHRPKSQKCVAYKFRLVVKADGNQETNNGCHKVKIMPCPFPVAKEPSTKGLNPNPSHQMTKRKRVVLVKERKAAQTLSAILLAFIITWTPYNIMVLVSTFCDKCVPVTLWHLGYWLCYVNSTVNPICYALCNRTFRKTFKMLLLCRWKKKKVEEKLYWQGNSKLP
As to the kind of experiment: M5 PAM concentration-response-curve. It is filed as cell-based. The conditions noted are these: Table 1, average of three independent experiments.

Data set [2] has as its system M1-M4. As to the kind of experiment: human mAChR selectivity versus M1-M4. Format: cell-based. To be noted: read-out: M1-M4 EC50s; human data is the same as rat.
Data set [3] concerns M1-M4. As to the kind of experiment: rat mAChR selectivity versus M1-M4. Format: cell-based. To be noted: read-out: M1-M4 EC50s; rat (Fig. 5C); text does not state species.
Data set [4] in a line: ancillary pharmacology profile.
Data set [5] has as its system CYP. As to the kind of experiment: CYP profile. It is filed as in vitro ADME.
For data set [6], the target named is T2, rat M5 (Rattus norvegicus, UniProt P08911).
T2 sequence (P08911 1-531): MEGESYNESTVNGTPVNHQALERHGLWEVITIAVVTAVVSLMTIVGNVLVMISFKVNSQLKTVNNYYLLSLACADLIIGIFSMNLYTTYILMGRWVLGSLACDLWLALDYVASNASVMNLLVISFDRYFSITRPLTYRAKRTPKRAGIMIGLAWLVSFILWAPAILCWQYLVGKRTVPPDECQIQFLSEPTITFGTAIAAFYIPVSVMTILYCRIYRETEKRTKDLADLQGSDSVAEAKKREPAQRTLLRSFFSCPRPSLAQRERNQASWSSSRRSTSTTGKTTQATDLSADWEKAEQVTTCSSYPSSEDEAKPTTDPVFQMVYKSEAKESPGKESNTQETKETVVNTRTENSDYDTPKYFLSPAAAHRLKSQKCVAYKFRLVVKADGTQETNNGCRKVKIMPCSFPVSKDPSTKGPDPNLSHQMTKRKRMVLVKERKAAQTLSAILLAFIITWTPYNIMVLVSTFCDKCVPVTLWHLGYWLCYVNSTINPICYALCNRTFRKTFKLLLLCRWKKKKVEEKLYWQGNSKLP
As to the kind of experiment: M5 PAM CRC, rat M5. It is filed as cell-based.

Values joined by “and” are separate entries in the source; they are usually repeats but may differ in a detail not shown here. Identical values can stand only once. A value given as a limit tells only on which side of the number the result lay.

`O=C1C(=O)N(CCOc2ccc(Cl)cc2)c2ccc(OC(F)(F)F)cc21` [Compound 19b]: in data set [1], the “pEC50±SEM” value was found to be 6.35±0.04.
On the same count and under the same terms, the figure for `Cc1cccc(OCCN2C(=O)C(=O)c3cc(OC(F)(F)F)ccc32)c1` [Compound 19d] is 6.28±0.03.
Consider `O=C1C(=O)N(CCOc2ccccc2)c2ccc(OC(F)(F)F)cc21` [ML326, 1-(2-phenoxyethyl)-5-(trifluoromethoxy)indoline-2,3-dione], for which the “pEC50±SEM” value in data set [1] was 6.39±0.04. In addition, the EC50 in data set [2] was greater than 30 µM; in data set [3], > 30 µM and < 30 µM; in data set [6] it was 0.5 µM. The ancillary pharmacology profile result in data set [4] is recorded as “relatively clean”. For the same compound, the CYP profile entry in data set [5] was “relatively clean”.
